The values below are quoted from earlier work in US20240269237A1, “PHARMACEUTICAL COMPOSITION AND KIT COMPRISING AN IMMUNOMODULATORY SUBSTANCE FOR TREATING DISEASES” (ellennbe GmbH, priority 2021, published 2024).

For series [1], the system named is ankylosing spondylitis (Bechterew's disease). The settings on record: for effect of earlier treatment with biologics: Patient 11, history, within half a year the biologics lost their effect; for tolerability of earlier TNF-α inhibitors: human, in vivo.
For another series, the system named is rheumatoid arthritis. The settings on record: for adverse effects of earlier treatment: Patient 7, history, regimen of MTX and upadacitinib tried a second time.
In another series the test system is perfusion of the skin. The settings on record: healthy subjects.

Regarding golimumab [Simponi®], the “effect of earlier treatment with biologics” value in series [1] is listed as “little effect from the outset”. On to `CC[C@@H]1CN(C(=O)NCC(F)(F)F)C[C@@H]1c1cnc2cnc3[nH]ccc3n12` [upadacitinib], for which the “adverse effects of earlier treatment” value in the series on rheumatoid arthritis is “severe adverse effects (tendency to fibrosis in the lungs and sinusitis)”. On to Symponi®: TNF-α inhibitor, for which the “tolerability of earlier TNF-α inhibitors” value in series [1] was “strong adverse side effects”. Regarding tocilizumab, the “efficacy of basic treatment” value in the series with rheumatoid arthritis (Patient 7, 162 mg per week) is listed as “only partially efficient”. `COC(=O)c1cccnc1` [MN, methyl nicotinate]: the perfusion response result in the series with perfusion of the skin (50 μl of 20 mmol/l topically) is on record as “reproducible perfusion response”. Besides, the “time course of perfusion increase” value in the series on perfusion of the skin (topical application) is on record as “reaches a stable plateau phase after five minutes”.

For the compound Remicade®: TNF-α inhibitor, the “tolerability of earlier TNF-α inhibitors” value in series [1] is listed as “strong adverse side effects”. As for etanercept [Enbrel®], in series [1], the “tolerability of earlier TNF-α inhibitors” value is “strong adverse side effects”. For the compound `CN(Cc1cnc2nc(N)nc(N)c2n1)c1ccc(C(=O)N[C@@H](CCC(=O)O)C(=O)O)cc1` [MTX, methotrexate], in the series with rheumatoid arthritis, the “adverse effects of earlier treatment” value is “severe adverse effects (tendency to fibrosis in the lungs and sinusitis)”. Take adalinumab [Humira®]: in series [1], the “effect of earlier treatment with biologics” value was “little effect from the outset”.
